Measured values: patent US10759816B2, “Heterocyclic compounds as RSV inhibitors” (Enanta Pharmaceuticals, Inc., priority 2016, dated 2020)
Where two headings read alike, the source gives them in different places.

Tested on: genotype A, "Long" strain RSV
Test: RSV-A in vitro cytoprotection assay in HEp-2 cells (ATPlite readout of cell viability)
Type: cell-based, Human respiratory syncytial virus
Settings: genotype A “Long” strain RSV, cytoprotection, read-out: Human RSV-A (“Long” strain) EC50
Description: RSV is a single stranded negative sense RNA virus that causes respiratory tract infections which can be dangerous to infants, the elderly, and immunosuppressed individuals. Currently there is no vaccine, and therapeutic options are both costly and of limited effectiveness. These approved treatments are Ribavirin, and Palivizumab/Synagis (a monoclonal antibody). RSV has two genotypes, A and B, which differ primarily in the structure of the virus' surface “G” attachment protein. Our current primary screen focuses on RSV-A and uses an in vitro cytoprotection assay where compounds are added in 2-fold dilutions to cells which are then subjected to fully replicative viral particles. Cell viability is measured several days later along with separate measurements of compound cytotoxicity. This report focuses on the results of our most recent screening of compounds.
HEp-2 cells, (originally derived from tumors grown in irradiated-cortisonised weanling rats that had been injected with epidermoid carcinoma tissue from a person's larynx, but later found to be indistinguishable from HeLa cells by PCR DNA analysis), were used for the culturing of genotype A, “Long” strain RSV. Flasks were inoculated with RSV and viral stocks were collected once cytopathic effect (CPE) was greater than 90%. Viral stocks in 25% sucrose media were snap frozen using liquid nitrogen to increase viral stability. Viral stock titers were quantified by tissue culture infectious dose 50% (TCID50) using 8,000 cells per well and 3-fold viral dilutions across a 96-well plate, cultured for 4 days.
Following extensive parameter testing, the final assay is run as follows: HEp-2 cells are seeded into the inner 60 wells of a 96-well plate at 8,000 cells per well in a volume of 50 μL using Growth Media (DMEM without phenol red, 1% L-Glut, 1% Penn/Strep, 1% nonessential amino acids, 10% FBS). 2-Fold serial dilutions of control and test compounds are added to the wells in duplicate in a total volume of 25 μL. Viral stock is then added to the wells in a volume of 25 μL, bringing the total volume of each well to 100 μL. Each 96-well plate has a control column of 6 wells with cells and virus but no compound (negative control, max CPE), a column with cells but no compound or virus (positive control, minimum CPE), and a column with no cells or virus or compound (background plate/reagent control). The control wells with cells but no virus are given an additional 25 uL of growth media containing an equal quantity of sucrose as those wells receiving the viral stock in order to keep consistent in media and volume conditions. The outer wells of the plate are filled with 125 μL of growth media to act as a thermal and evaporative moat around the test wells. Following a 4-day incubation period, the plates are read using ATPlite (50 uL added per well), which quantifies the amount of ATP (a measure of cell health) present in each well. Assay plates are read using the Envision luminometer. In parallel, cytotoxicity is examined on an additional 96-well plate treated in an identical manner, but substituting the 25 μL of viral stock for 25 μL of growth media. […] EC50 ranges are as follows: A <0.4 μM; B 0.4-0.8 μM; C >0.8 μM.

[1] = human respiratory syncytial virus, HEp-2, HEp-2 cells

SMILES | EC50 [1] | EC50 (HEp-2 cells)
COc1cccc2c1ccn2-c1cccc(C(=O)N2CCc3cc(C(=O)NC4CC4)sc3-c3ccccc32)n1 [Example 114] | > 800 nM | –
COCCN(c1ccccc1)c1cccc(C(=O)N2CCc3cc(C(=O)Nc4c(C)cccc4F)sc3-c3ccccc32)n1 [Example 115] | < 400 nM | –
Cc1cccc(F)c1NC(=O)c1cc2c(s1)-c1ccccc1N(C(=O)c1cccc(N(C)CC3Cc4ccccc4O3)n1)CC2 (centres unmarked) [Example 117] | < 400 nM | –
COCCN(CC(C)C)c1cccc(C(=O)N2CCc3cc(C(=O)Nc4c(C)cccc4F)sc3-c3ccccc32)n1 [Example 118] | < 400 nM | –
COc1cccc2c1ccn2-c1cccc(C(=O)N2CCc3cc(C(=O)Nc4c(C)cccc4F)sc3-c3ccccc32)n1 [Example 119] | 400 to 800 nM | –
COc1ccc2c(ccn2-c2cccc(C(=O)N3CCc4cc(C(=O)Nc5c(C)cccc5F)sc4-c4ccccc43)n2)c1 [Example 120] | < 400 nM | –
O=C(NC1CC1)c1cc2c(s1)-c1ccccc1N(C(=O)c1cccc(-n3cnc4ncccc43)n1)CC2 [Example 121] | > 800 nM | –
Cc1cccc(F)c1NC(=O)c1cc2c(s1)-c1ccccc1N(C(=O)c1cccc(-n3cnc4ncccc43)n1)CC2 [Example 122] | > 800 nM | –
Cc1cccc(F)c1NC(=O)c1cc2c(s1)-c1ccccc1N(C(=O)c1cccc(-n3nnc4ncccc43)n1)CC2 [Example 123] | > 800 nM | –
O=C(NC1CC1)c1cc2c(s1)-c1ccccc1N(C(=O)c1cccc(-c3nncn3C3CCOCC3)n1)CC2 [Example 124] | > 800 nM | –
COC(C)(C)Cn1cnnc1-c1cccc(C(=O)N2CCc3cc(C(=O)NC4CC4)sc3-c3ccccc32)n1 [Example 125] | > 800 nM | –
O=C(NC1CC1)c1cc2c(s1)-c1ccccc1N(C(=O)c1cccc(-c3nncn3C3CC3)n1)CC2 [Example 126] | > 800 nM | –
O=C(NC1CC1)c1cc2c(s1)-c1ccccc1N(C(=O)c1cccc(-c3nncn3CC3CCOCC3)n1)CC2 [Example 127] | > 800 nM | –
O=C(NC1CC1)c1cc2c(s1)-c1ccccc1N(C(=O)c1cccc(-c3nncn3C3COC3)n1)CC2 [Example 128] | > 800 nM | –
Cc1cccc(F)c1NC(=O)c1cc2c(s1)-c1ccccc1N(C(=O)c1ccc(NC(=O)NCCN3CCOCC3)cc1)CC2 [Example 129] | > 800 nM | –
Cc1cccc(F)c1NC(=O)c1cc2c(s1)-c1ccccc1N(C(=O)c1ccc(NC(=O)N3CC4(CCOCC4)C3)cc1)CC2 [Example 130] | > 800 nM | –
Cc1cccc(F)c1NC(=O)c1cc2c(s1)-c1ccccc1N(C(=O)c1ccc(NC(=O)N3CCCOCC3)cc1)CC2 [Example 131] | > 800 nM | –
Cc1cccc(F)c1NC(=O)c1cc2c(s1)-c1ccccc1N(C(=O)c1ccc(NS(=O)(=O)c3cccnc3N3CC4(CCOCC4)C3)cc1)CC2 [Example 132] | > 800 nM | –
Cc1cnc(N2CC3(CCOCC3)C2)c(NS(=O)(=O)c2ccc(C(=O)N3CCc4cc(C(=O)Nc5c(C)cccc5F)sc4-c4ccccc43)cc2)c1 [Example 133] | > 800 nM | –
Cc1cccc(F)c1NC(=O)c1cc2c(s1)-c1ccccc1N(C(=O)c1ccc(Nc3cccnc3N3CC4(CCOCC4)C3)cc1)CC2 [Example 134] | > 800 nM | –
Cc1cccc(F)c1NC(=O)c1cc2c(o1)-c1ccccc1N(C(=O)c1ccc(NC(=O)c3cccnc3N3CC4(CCOCC4)C3)cc1)CC2 [Example 135] | < 400 nM | –
Cc1cnc(N2CCOCC2)c(NC(=O)c2ccc(C(=O)N3CCc4cc(C(=O)Nc5c(C)cccc5F)sc4-c4ccccc43)cc2)c1 [Example 137] | > 800 nM | –
Cc1cnc(N2CC3(CCCOC3)C2)c(NC(=O)c2ccc(C(=O)N3CCc4cc(C(=O)Nc5c(C)cccc5F)sc4-c4ccccc43)cc2)c1 [Example 138] | > 800 nM | –
Cc1cnc(N2CCC3(COC3)C2)c(NC(=O)c2ccc(C(=O)N3CCc4cc(C(=O)Nc5c(C)cccc5F)sc4-c4ccccc43)cc2)c1 [Example 139] | > 800 nM | –
Cc1cnc(N2CC3(CCOC3)C2)c(NC(=O)c2ccc(C(=O)N3CCc4cc(C(=O)Nc5c(C)cccc5F)sc4-c4ccccc43)cc2)c1 [Example 140] | > 800 nM | –
Cc1cnc(N2CC3(COC3)C2)c(NC(=O)c2ccc(C(=O)N3CCc4cc(C(=O)Nc5c(C)cccc5F)sc4-c4ccccc43)cc2)c1 [Example 141] | > 800 nM | –
Cc1cnc(N2CC3(CCOCC3)C2)c(NC(=O)c2ccc(C(=O)N3CCc4cc(C(=O)Nc5c(C)cccc5F)sc4-c4ccccc43)cc2)c1 [Example 142] | < 400 nM | –

SMILES | EC50 [1] | EC50 (HEp-2 cells)
Cc1cccc(F)c1NC(=O)c1cc2c(s1)-c1ccccc1N(C(=O)c1cccc(-n3cc(C#N)cn3)n1)CC2 [Example 143] | > 800 nM | –
Cc1cccc(F)c1NC(=O)c1cc2c(s1)-c1ccccc1N(C(=O)c1cccc(-n3cc(S(C)(=O)=O)cn3)n1)CC2 [Example 144] | > 800 nM | –
Cc1cccc(F)c1NC(=O)c1cc2c(s1)-c1ccccc1N(C(=O)c1cccc(-n3cnnc3C3CC3)n1)CC2 [Example 145] | > 800 nM | –
Cc1cccc(F)c1NC(=O)c1cc2c(s1)-c1ccccc1N(C(=O)c1cccc(-n3ccnc3C3CC3)n1)CC2 [Example 146] | < 400 nM | –
Cc1cccc(F)c1NC(=O)c1cc2c(s1)-c1ccccc1N(C(=O)c1cccc(-n3ccnc3C3CCC3)n1)CC2 [Example 147] | < 400 nM | –
Cc1cccc(F)c1NC(=O)c1cc2c(s1)-c1ccccc1N(C(=O)c1cccc(-n3cncc3C3CC3)n1)CC2 [Example 148] | > 800 nM | –
Cc1cccc(F)c1NC(=O)c1cc2c(s1)-c1ccccc1N(C(=O)c1cccc(-n3cnc(C4CC4)c3)n1)CC2 [Example 149] | < 400 nM | –
O=C(NC1CC1)c1cc2c(s1)-c1ccccc1N(C(=O)c1cccc(-c3cnn(C4CCOCC4)c3)n1)CC2 [Example 150] | – | > 800 nM
Cn1cc(-c2cccc(C(=O)N3CCc4cc(C(=O)NC5CC5)sc4-c4ccccc43)n2)ccc1=O [Example 151] | > 800 nM | –
O=C(NC1CC1)c1cc2c(s1)-c1ccccc1N(C(=O)c1cccc(-c3ccnc4ccccc34)n1)CC2 [Example 152] | > 800 nM | –
O=C(NC1CC1)c1cc2c(s1)-c1ccccc1N(C(=O)c1cccc(-c3cncc4ccccc34)n1)CC2 [Example 153] | > 800 nM | –
O=C(NC1CC1)c1cc2c(s1)-c1ccccc1N(C(=O)c1cccc(-c3cccnc3)n1)CC2 [Example 154] | > 800 nM | –
Cc1cncc(-c2cccc(C(=O)N3CCc4cc(C(=O)NC5CC5)sc4-c4ccccc43)n2)c1 [Example 155] | > 800 nM | –
Cc1ccncc1-c1cccc(C(=O)N2CCc3cc(C(=O)NC4CC4)sc3-c3ccccc32)n1 [Example 156] | > 800 nM | –
O=C(NC1CC1)c1cc2c(s1)-c1ccccc1N(C(=O)c1cccc(-c3cncc(N4CCOCC4)c3)n1)CC2 [Example 157] | 400 to 800 nM | –
O=C(NC1CC1)c1cc2c(s1)-c1ccccc1N(C(=O)c1cccc(-c3cnn(C4COC4)c3)n1)CC2 [Example 158] | > 800 nM | –
O=C(NC1CC1)c1cc2c(s1)-c1ccccc1N(C(=O)c1cccc(-c3cnn(C4CCOC4)c3)n1)CC2 (centres unmarked) [Example 159] | > 800 nM | –
COCCn1cc(-c2cccc(C(=O)N3CCc4cc(C(=O)NC5CC5)sc4-c4ccccc43)n2)cn1 [Example 160] | > 800 nM | –
O=C(NC1CC1)c1cc2c(s1)-c1ccccc1N(C(=O)c1cccc(-c3cnc(N4CCOCC4)s3)n1)CC2 [Example 161] | 400 to 800 nM | –
Cn1ccc(-c2cccc(C(=O)N3CCc4cc(C(=O)NC5CC5)sc4-c4ccccc43)n2)cc1=O [Example 162] | > 800 nM | –
COc1ncc(-c2cccc(C(=O)N3CCc4cc(C(=O)NC5CC5)sc4-c4ccccc43)n2)cc1C [Example 163] | < 400 nM | –
O=C(NC1CC1)c1cc2c(s1)-c1ccccc1N(C(=O)c1cccc(-c3cn[nH]c3C3CC3)n1)CC2 [Example 164] | < 400 nM | –
O=C(NC1CC1)c1cc2c(s1)-c1ccccc1N(C(=O)c1cccc(-c3cncn3C3CC3)n1)CC2 [Example 165] | < 400 nM | –
O=C(NC1CC1)c1cc2c(s1)-c1ccccc1N(C(=O)c1cccc(-c3ccnc(C4CC4)c3)n1)CC2 [Example 166] | > 800 nM | –
O=C(NC1CC1)c1cc2c(s1)-c1ccccc1N(C(=O)c1cccc(-c3csc(N4CCOCC4)n3)n1)CC2 [Example 167] | > 800 nM | –
COc1ccc(-c2cccc(C(=O)N3CCc4cc(C(=O)Nc5ccccc5)sc4-c4ccccc43)n2)cn1 [Example 168] | > 800 nM | –
